Test results taken from ChEMBL document CHEMBL2073997, “Effect of multidrug resistance-reversing agents on transporting activity of human canalicular multispecific organic anion transporter” (Mol Pharmacol, 1999).

What was measured:
[1] = biological target: T1, ATP-binding cassette sub-family C member 2 (Homo sapiens, UniProt Q92887); experiment: TP_TRANSPORTER: increase in Vincristine intracellular accumulation (Vincristine: 1 uM, PAK-104P: 10 uM) in MRP2-expressing LLC PK1 cells; type: functional, cell-based; details: pig, llc-pk1, 10 µM
[2] = biological target: T1, ATP-binding cassette sub-family C member 2; experiment: TP_TRANSPORTER: inhibition of LTC4 uptake in membrane vesicles from MRP2-expressing LLC PK1 cells; type: functional, cell membranes, Membrane vesicle
[3] = biological target: T1, ATP-binding cassette sub-family C member 2; experiment: (§1) TP_TRANSPORTER: uptake in membrane vesicles from MRP2-expressing LLC PK1 cells; type: functional, cell membranes, Membrane vesicle; details: pig
[4] = biological target: T1, ATP-binding cassette sub-family C member 2; experiment: TP_TRANSPORTER: increase in Vincristine intracellular accumulation (Vincristine: 1 uM, MK571: 10 uM) in MRP2-expressing LLC PK1 cells; type: functional, cell-based; details: pig, llc-pk1, 10 µM
[5] = biological target: T1, ATP-binding cassette sub-family C member 2; experiment: TP_TRANSPORTER: increase in Vincristine intracellular accumulation (Vincristine: 1 uM, PSC-833: 10 uM) in MRP2-expressing LLC PK1 cells; type: functional, cell-based; details: pig, llc-pk1, 10 µM
[6] = biological target: T1, ATP-binding cassette sub-family C member 2; experiment: TP_TRANSPORTER: intracellular accumulation in MRP2-expressing LLC PK1 cells; type: functional, cell-based; details: pig
[7] = substrate: CCCCC/C=C\C\C=C/C=C/C=C/[C@@H](SC[C@@H](NC(=O)CC[C@H](N)C(=O)O)C(=O)NCC(=O)O)[C@@H](O)CCCC(=O)O; experiment: as §1; type: functional, cell membranes, Membrane vesicle

## Cc1nc(C)c(P2(=O)O[C@H](C)C[C@@H](C)O2)c(-c2cccc([N+](=O)[O-])c2)c1C(=O)OCCN1CCN(C(c2ccccc2)c2ccccc2)CC1 (some centres undefined)
[1]
  Activity: inhibitor [+]
[2]
  Ki: 3.7 µM

## N[C@@H](CCC(=O)N[C@H](CSc1ccc([N+](=O)[O-])cc1[N+](=O)[O-])C(=O)NCC(=O)O)C(=O)O
[3]
  Activity: substrate [+]

## CN(C)C(=O)CCSC(SCCC(=O)O)c1cccc(/C=C/c2ccc3ccc(Cl)cc3n2)c1 (centres undefined) [MK-571]
[4]
  Activity: inhibitor [+]
[2]
  Ki: 13.1 µM

## C/C=C/C[C@@H](C)C(=O)[C@H]1C(=O)N[C@@H](C(C)C)C(=O)N(C)CC(=O)N(C)[C@@H](CC(C)C)C(=O)N[C@@H](C(C)C)C(=O)N(C)[C@@H](CC(C)C)C(=O)N[C@@H](C)C(=O)N[C@H](C)C(=O)N(C)[C@@H](CC(C)C)C(=O)N(C)[C@@H](CC(C)C)C(=O)N(C)[C@@H](C(C)C)C(=O)N1C [VALSPODAR]
[5]
  Activity: inhibitor [+]
[2]
  Ki: 28.9 µM

## CC[C@]1(O)C[C@H]2CN(CCc3c([nH]c4ccccc34)[C@@](C(=O)OC)(c3cc4c(cc3OC)N(C=O)[C@H]3[C@@](O)(C(=O)OC)[C@H](OC(C)=O)[C@]5(CC)C=CCN6CC[C@]43[C@@H]65)C2)C1 [VINCRISTINE]
[6]
  Activity: substrate [+]

B1: ATP-binding cassette sub-family C member 2 (Homo sapiens) (protein)
chain: MLEKFCNSTFWNSSFLDSPEADLPLCFEQTVLVWIPLGYLWLLAPWQLLHVYKSRTKRSSTTKLYLAKQVFVGFLLILAAIELALVLTEDSGQATVPAVRYTNPSLYLGTWLLVLLIQYSRQWCVQKNSWFLSLFWILSILCGTFQFQTLIRTLLQGDNSNLAYSCLFFISYGFQILILIFSAFSENNESSNNPSSIASFLSSITYSWYDSIILKGYKRPLTLEDVWEVDEEMKTKTLVSKFETHMKRELQKARRALQRRQEKSSQQNSGARLPGLNKNQSQSQDALVLEDVEKKKKKSGTKKDVPKSWLMKALFKTFYMVLLKSFLLKLVNDIFTFVSPQLLKLLISFASDRDTYLWIGYLCAILLFTAALIQSFCLQCYFQLCFKLGVKVRTAIMASVYKKALTLSNLARKEYTVGETVNLMSVDAQKLMDVTNFMHMLWSSVLQIVLSIFFLWRELGPSVLAGVGVMVLVIPINAILSTKSKTIQVKNMKNKDKRLKIMNEILSGIKILKYFAWEPSFRDQVQNLRKKELKNLLAFSQLQCVVIFVFQLTPVLVSVVTFSVYVLVDSNNILDAQKAFTSITLFNILRFPLSMLPMMISSMLQASVSTERLEKYLGGDDLDTSAIRHDCNFDKAMQFSEASFTWEHDSEATVRDVNLDIMAGQLVAVIGPVGSGKSSLISAMLGEMENVHGHITIKGTTAYVPQQSWIQNGTIKDNILFGTEFNEKRYQQVLEACALLPDLEMLPGGDLAEIGEKGINLSGGQKQRISLARATYQNLDIYLLDDPLSAVDAHVGKHIFNKVLGPNGLLKGKTRLLVTHSMHFLPQVDEIVVLGNGTIVEKGSYSALLAKKGEFAKNLKTFLRHTGPEEEATVHDGSEEEDDDYGLISSVEEIPEDAASITMRRENSFRRTLSRSSRSNGRHLKSLRNSLKTRNVNSLKEDEELVKGQKLIKKEFIETGKVKFSIYLEYLQAIGLFSIFFIILAFVMNSVAFIGSNLWLSAWTSDSKIFNSTDYPASQRDMRVGVYGALGLAQGIFVFIAHFWSAFGFVHASNILHKQLLNNILRAPMRFFDTTPTGRIVNRFAGDISTVDDTLPQSLRSWITCFLGIISTLVMICMATPVFTIIVIPLGIIYVSVQMFYVSTSRQLRRLDSVTRSPIYSHFSETVSGLPVIRAFEHQQRFLKHNEVRIDTNQKCVFSWITSNRWLAIRLELVGNLTVFFSALMMVIYRDTLSGDTVGFVLSNALNITQTLNWLVRMTSEIETNIVAVERITEYTKVENEAPWVTDKRPPPDWPSKGKIQFNNYQVRYRPELDLVLRGITCDIGSMEKIGVVGRTGAGKSSLTNCLFRILEAAGGQIIIDGVDIASIGLHDLREKLTIIPQDPILFSGSLRMNLDPFNNYSDEEIWKALELAHLKSFVASLQLGLSHEVTEAGGNLSIGQRQLLCLGRALLRKSKILVLDEATAAVDLETDNLIQTTIQNEFAHCTVITIAHRLHTIMDSDKVMVLDNGKIIECGSPEELLQIPGPFYFMAKEAGIENVNSTKF
[7]
  Km: 0.26 µM
